In assay [1] the test system is PC-3. Put plainly: Antiproliferative activity against human PC3 cells after 48 hrs by MTT assay. Conditions: PC-3, 48 h. In kind it is functional, cell-based. Background: Tetrazolium assays rely on reduction of a dye to a coloured formazan, in cell work by metabolically active cells.
Assay [2] has as its system MIA PaCa-2. Kind of assay: Antiproliferative activity against human MIAPaCa2 cells after 48 hrs by MTT assay. Conditions: MIA PaCa-2, 48 h. In kind it is functional, cell-based.
The subject of assay [3] is A549. Kind of assay: Antiproliferative activity against human A549 cells after 48 hrs by MTT assay. The assay is classed as functional, cell-based. The conditions noted are these: A549, 48 h.
For assay [4], the system named is A-375. Kind of assay: Antiproliferative activity against human A375 cells after 48 hrs by MTT assay. The assay is classed as functional, cell-based. Conditions: A-375, 48 h.
In assay [5] the test system is Caco-2. Kind of assay: Antiproliferative activity against human Caco2 cells after 48 hrs by MTT assay. The assay is classed as functional, cell-based. The conditions noted are these: Caco-2, 48 h.
A short description of assay [6]: Antiproliferative activity against human HPDEC after 48 hrs by MTT assay. The assay is classed as cell-based.
Assay [7] concerns MIA PaCa-2. Put plainly: Cell cycle arrest in human MIAPaCa2 cells assessed as accumulation at sub-G0/G1 phase at IC50 after 48 hrs by propidium iodide staining based flow cytometry. The assay is classed as functional. A general note: Flow cytometry measures light scatter and fluorescence of single cells or particles in a stream.
In assay [8] the test system is MIA PaCa-2. Put plainly: Antiproliferative activity against human MIAPaCa2 cells assessed as reduction in colony formation measured after 10 to 14 days by crystal violet staining based microscopic method. In kind it is functional, cell-based.
Assay [9] deals with A-375. Put plainly: Antiproliferative activity against human A375 cells assessed as reduction in colony formation measured after 10 to 14 days by crystal violet staining based microscopic method. The assay is classed as functional, cell-based.
Assay [10] deals with A-375. Kind of assay: Antiproliferative activity against human A375 cells assessed as reduction in cell viability at IC50 after 24 hrs by calcein AM staining based confocal microscopy. The assay is classed as functional.
The subject of assay [11] is MIA PaCa-2. Put plainly: Antiproliferative activity against human MIAPaCa2 cells assessed as reduction in cell viability at IC50 after 24 hrs by calcein AM staining based confocal microscopy. In kind it is functional.
Assay [12] concerns A-375. Put plainly: Cell cycle arrest in human A375 cells assessed as accumulation at G2/M phase at IC50 after 48 hrs by propidium iodide staining based flow cytometry. The assay is classed as functional.
Assay [13] relates to MIA PaCa-2. Kind of assay: Cell cycle arrest in human MIAPaCa2 cells assessed as accumulation at G2/M phase at IC50 after 48 hrs by propidium iodide staining based flow cytometry. The assay is classed as functional.
Assay [14] concerns MIA PaCa-2. Kind of assay: Cell cycle arrest in human MIAPaCa2 cells assessed as decrease in G1 population at IC50 after 48 hrs by propidium iodide staining based flow cytometry. The assay is classed as functional.
In assay [15] the test system is A-375. Kind of assay: Cell cycle arrest in human A375 cells assessed as accumulation at sub-G0/G1 phase at IC50 after 48 hrs by propidium iodide staining based flow cytometry. The assay is classed as functional.
In assay [16] the test system is A-375. Put plainly: Cell cycle arrest in human A375 cells assessed as decrease in G1 population at IC50 after 48 hrs by propidium iodide staining based flow cytometry. In kind it is functional.

Each structure is given as a SMILES string. Active and inactive are the calls of the source. No cut-off for these calls is given here. A value given as a limit tells only on which side of the number the result lay.

Usually IC50 stands for the point on the concentration scale where inhibition reaches its midpoint.

Take `Cc1ccc(C#Cc2sc3c(c2C(=O)c2ccccc2)CCCC3)cc1`: the half-maximal inhibitory concentration (IC50) in [1], in assay [2], in assay [3], in assay [4] and in assay [5] was > 100 µM each time.

Turning to `Cc1ccc(C#Cc2sc(C)c(C)c2C(=O)c2ccc([N+](=O)[O-])cc2)cc1`, the half-inhibitory concentration (IC50) in [1] is 40.6 µM; in [2], 79 µM; in assay [3], > 100 µM; in assay [4] it was 26.4 µM; in [5] it was 31.4 µM.

As to `Cc1ccc(C(=O)c2c(-c3ccccc3)sc3c2CCCCC3)cc1`, the IC50 in assay [1] came out at 23.4 µM; in assay [2] it was 24.6 µM; in assay [3], 6.28 µM; in assay [6], 25.8 µM; in assay [4] it was 3.71 µM; in [5], 15.7 µM.

With `Cc1sc(C#Cc2ccccc2)c(C(=O)c2ccc([N+](=O)[O-])cc2)c1C`, the IC50 in assay [1] came to 33.4 µM; in assay [2], 21.9 µM; in assay [3], 19 µM; in assay [4] it was 21.2 µM; in assay [5], 25.1 µM.

For the compound `COc1cc(C(=O)c2c(C#Cc3ccccc3)sc3c2CCCC3)cc(OC)c1OC`, the IC50 was 15.5 µM in assay [1]; 5.08 µM in assay [2]; 12.9 µM in assay [3]; > 50 µM in assay [6]; 3.88 µM in assay [4]; 8.26 µM in assay [5].

`O=C(c1ccc([N+](=O)[O-])cc1)c1c(-c2ccccc2)sc2c1CCCC2`: the half-maximal inhibitory concentration (IC50) in [1] was 14.6 µM; in assay [2], 13.2 µM; in assay [3] it was 24.2 µM; in [4], 20.5 µM; in assay [5], 28.1 µM.

Consider `Cc1ccc(C(=O)c2c(C#Cc3ccccc3)sc(C)c2C)cc1`, for which the IC50 in [1] was 25.4 µM; in [2], > 100 µM; in [3] it was 39.5 µM; in [4] it was 43.2 µM; in assay [5], > 100 µM.

`Cc1ccc(C#Cc2sc(C)c(C)c2C(=O)c2ccccc2)cc1`: the IC50 was 51.4 µM in [1]; 69.8 µM in assay [2]; > 100 µM in [3]; > 100 µM in [4]; > 100 µM in assay [5].

For the compound `O=C(c1ccccc1)c1c(-c2ccccc2)sc2c1CCCCC2`, the IC50 in [1] came to 22.1 µM; in assay [2] it was 12 µM; in assay [3], 15.8 µM; in assay [6] it was 14.6 µM; in assay [4] it was 7.72 µM; in assay [5], 18.1 µM.

In the case of `O=C(c1ccccc1)c1c(-c2ccccc2)sc2c1CCCC2`, the concentration for half-maximal inhibition (IC50) was 23.8 µM in assay [1]; 18.2 µM in assay [2]; 14 µM in assay [3]; 16.3 µM in assay [4]; 20.4 µM in assay [5].

For the compound `Cc1ccc(C#Cc2sc3c(c2C(=O)c2ccc([N+](=O)[O-])cc2)CCCC3)cc1`, the IC50 in [1] amounted to 21.4 µM; in assay [2] it was 16.4 µM; in assay [3], 30.1 µM; in assay [4] it was 13.1 µM; in [5], 34.2 µM.

For `Cc1ccc(C#Cc2sc(C)c(C)c2C(=O)c2ccc(C)cc2)cc1`, the IC50 was > 100 µM in assay [1]; > 100 µM in assay [2]; 45.3 µM in [3]; > 100 µM in assay [4]; > 100 µM in assay [5].

As for `O=C(c1ccc([N+](=O)[O-])cc1)c1c(-c2ccccc2)sc2c1CCCCC2`, the outcome in [7], in assay [8], in assay [9], in assay [10], in assay [11] and in [12] was Active. Also, the outcome in assay [13], in [14], in assay [15] and in assay [16] was Active. Moreover, the IC50 in assay [1] was 40.1 µM; in [2] it was 5.35 µM; in assay [3] it was 5.39 µM; in [6] it was > 50 µM; in assay [4], 1.07 µM; in [5], 6.1 µM.

For the compound `Cc1ccc(C#Cc2sc3c(c2C(=O)c2ccc(C)cc2)CCCC3)cc1`, the IC50 in assay [1] turned out to be 48.2 µM; in [2], 42 µM; in assay [3] it was 27.3 µM; in assay [4], 30.7 µM; in assay [5] it was 31.5 µM.

For `COc1cc(C(=O)c2c(C#Cc3ccccc3)sc(C)c2C)cc(OC)c1OC`, the 50% inhibitory concentration (IC50) in assay [1] stood at 6.49 µM; in [2] it was 4.32 µM; in [3], 6.51 µM; in [6] it was 36.1 µM; in assay [4] it was 1.17 µM; in [5], 7.49 µM.

With `COc1ccc(C(=O)c2c(C#Cc3ccccc3)sc3c2CCCC3)cc1`, the IC50 came out at 14.5 µM in assay [1]; 35.2 µM in assay [2]; 8.14 µM in [3]; 35.6 µM in [6]; 1.9 µM in [4]; 16.8 µM in assay [5].

On to `Cc1ccc(C(=O)c2c(-c3ccccc3)sc(C)c2C)cc1`, for which the 50% inhibitory concentration (IC50) is 26 µM in assay [1]; > 100 µM in [2]; > 100 µM in assay [3]; 51.2 µM in assay [4]; > 100 µM in assay [5].

As for `Cc1ccc(C(=O)c2c(-c3ccccc3)sc3c2CCCC3)cc1`, the IC50 in assay [1] was 37.5 µM; in assay [2], 36.4 µM; in assay [3], 32.7 µM; in assay [4], 27 µM; in assay [5] it was 47.6 µM.

As for `Cc1sc(-c2ccccc2)c(C(=O)c2ccccc2)c1C`, the IC50 in [1] was 39.5 µM; in assay [2], > 100 µM; in [3] it was 21.9 µM; in assay [4] it was 31.1 µM; in assay [5] it was 38 µM.

With `COc1ccc(C(=O)c2c(C#Cc3ccccc3)sc(C)c2C)cc1`, the half-inhibitory concentration (IC50) in assay [1] came out at 21.4 µM; in assay [2] it was 29.4 µM; in assay [3], 13.6 µM; in [4], 9.35 µM; in [5], 18.3 µM.

With `COc1ccc(C(=O)c2c(-c3ccccc3)sc3c2CCCC3)cc1`, the IC50 in assay [1] turned out to be 23.4 µM; in assay [2], 8.84 µM; in assay [3] it was 9.42 µM; in assay [6], 21.4 µM; in assay [4], 5.34 µM; in assay [5], 18.6 µM.

With `Cc1ccc(C(=O)c2c(C#Cc3ccccc3)sc3c2CCCC3)cc1`, the IC50 in [1] is 20.4 µM; in assay [2], 17.2 µM; in assay [3] it was 11.3 µM; in assay [4], 10.1 µM; in assay [5] it was 10.4 µM.

Regarding `Cc1sc(-c2ccccc2)c(C(=O)c2ccc([N+](=O)[O-])cc2)c1C`, the 50% inhibitory concentration (IC50) in assay [1] is > 100 µM; in assay [2], 23.7 µM; in [3] it was 31 µM; in assay [4] it was > 100 µM; in assay [5] it was 64.7 µM.

With `O=C(c1ccccc1)c1c(C#Cc2ccccc2)sc2c1CCCC2`, the IC50 is 23.1 µM in assay [1]; 8.48 µM in assay [2]; 20.2 µM in assay [3]; 18.9 µM in assay [6]; 4.63 µM in assay [4]; 14.8 µM in [5].

With `COc1cc(C(=O)c2c(C#Cc3ccc(C)cc3)sc3c2CCCC3)cc(OC)c1OC`, the IC50 in assay [1] worked out at 37.5 µM; in [2], 21.2 µM; in [3] it was 18.9 µM; in [4] it was 22.5 µM; in assay [5], 28.3 µM.

As to `Cc1sc(C#Cc2ccccc2)c(C(=O)c2ccccc2)c1C`, the 50% inhibitory concentration (IC50) is 31.5 µM in assay [1]; 31.2 µM in assay [2]; 24 µM in assay [3]; 28 µM in assay [4]; 34.2 µM in assay [5].

Turning to `O=C(c1ccc([N+](=O)[O-])cc1)c1c(C#Cc2ccccc2)sc2c1CCCC2`, the outcome in assay [7], in assay [8], in [9], in [10], in assay [11] and in assay [12] was Active. Also, the outcome in [13], in assay [14], in assay [15] and in assay [16] was Active. In addition, the IC50 in [1] is 12.3 µM; in assay [2], 3 µM; in [3], 2.8 µM; in assay [6], > 50 µM; in assay [4], 0.81 µM; in assay [5], 4.52 µM.

For the compound `CC(=O)O[C@H]1C(=O)[C@@]2(C)[C@H]([C@H](OC(=O)c3ccccc3)[C@]3(O)C[C@H](OC(=O)[C@H](O)[C@@H](NC(=O)c4ccccc4)c4ccccc4)C(C)=C1C3(C)C)[C@]1(OC(C)=O)CO[C@@H]1C[C@@H]2O` [PACLITAXEL], the IC50 in assay [1] came out at 1.9 µM; in [2], 2.5 µM; in [3] it was 0.4 µM; in assay [4] it was 0.68 µM; in assay [5], 2.8 µM.

The values above are taken from ChEMBL document CHEMBL3994563 (Medchemcomm, 2016).
